Data as given in ChEMBL document CHEMBL2429852, “Synthesis and evaluation of new chalcones, derived pyrazoline and cyclohexenone derivatives as potent antimicrobial, antitubercular and antileishmanial agents” (Med Chem Res, 2013).
Values after ≈ are worked out from the molar mass of the structure shown.

Columns and labels:
Streptococcus pyogenes [1] = test: Antibacterial activity against Streptococcus pyogenes MTCC 443 assessed as growth inhibition by broth microdilution method; assay type: functional
Escherichia coli [2] = test: Antibacterial activity against Escherichia coli MTCC 442 assessed as growth inhibition by broth microdilution method; assay type: functional
Candida albicans [3] = test: Potency index, ratio of griseofulvin MIC to compound MIC for Candida albicans MTCC 227; assay type: functional
Leishmania braziliensis = test: Antileishmanial activity against promastigote stage of Leishmania braziliensis H3 assessed as parasite growth inhibition after 72 hrs by Neubauer chamber counting method; assay type: functional, organism-based
Aspergillus niger = test: Antifungal activity against Aspergillus niger MTCC 282 assessed as growth inhibition by broth microdilution method; assay type: functional
[4] = system: Mycobacterium tuberculosis; test: Antitubercular activity against Mycobacterium tuberculosis H37Rv assessed as growth inhibition after 12 to 28 days by Lowenstein-Jensen agar method; assay type: functional; details: for MIC: Mycobacterium tuberculosis, H37Rv
Aspergillus clavatus = test: Antifungal activity against Aspergillus clavatus MTCC 1323 assessed as growth inhibition by broth microdilution method; assay type: functional
Staphylococcus aureus [5] = test: Antibacterial activity against Staphylococcus aureus MTCC 96 assessed as growth inhibition by broth microdilution method; assay type: functional
Pseudomonas aeruginosa = test: Antibacterial activity against Pseudomonas aeruginosa MTCC 2488 assessed as growth inhibition by broth microdilution method; assay type: functional
Candida albicans [6] = test: Antifungal activity against Candida albicans MTCC 227 assessed as growth inhibition by broth microdilution method; assay type: functional
Escherichia coli [7] = test: Potency index, ratio of ampicillin MIC to compound MIC for Escherichia coli MTCC 442; assay type: functional
Streptococcus pyogenes [8] = test: Potency index, ratio of ampicillin MIC to compound MIC for Streptococcus pyogenes MTCC 443; assay type: functional
Staphylococcus aureus [9] = test: Potency index, ratio of ampicillin MIC to compound MIC for Staphylococcus aureus MTCC 96; assay type: functional
[10] = Leishmania braziliensis, H3, 72 h, read-out: IC50

Structure (SMILES) | MIC99 (Streptococcus pyogenes [1]) [µg/mL] | MIC99 (Escherichia coli [2]) [µg/mL] | Ratio (Candida albicans [3]) | IC50 (Leishmania braziliensis) | MIC99 (Aspergillus niger) [µg/mL] | growth inhibition (GI) [4] [%] | MIC [4] [µg/mL] | MIC99 (Aspergillus clavatus) [µg/mL] | MIC99 (Staphylococcus aureus [5]) [µg/mL] | MIC99 (Pseudomonas aeruginosa) [µg/mL] | MIC99 (Candida albicans [6]) [µg/mL] | Ratio (Escherichia coli [7]) | Ratio (Streptococcus pyogenes [8]) | IC50 (Leishmania braziliensis; [10]) [µM] | Ratio (Staphylococcus aureus [9])
O=C(/C=C/C=C/c1ccccc1)c1cccc([N+](=O)[O-])c1 | 125 | 200 | 2 | Not Active | 1000 | 97 | 1000 (≈ 3580 µM) | 1000 | 125 | 100 | 250 | – | – | – | –
COc1cc(C2CC(c3cccc([N+](=O)[O-])c3)=NN2C(C)=O)cc(OC)c1OC (centres undefined) | 250 | 250 | 2 | Not Active | 500 | 99 | 12.5 (≈ 31.3 µM) | 500 | 250 | 200 | 250 | – | – | – | –
COc1ccc(C2CC(c3cccc([N+](=O)[O-])c3)=NN2C(C)=O)c(OC)c1OC (centres undefined) | 250 | 100 | – | Not Active | 250 | 99 | 250 (≈ 626 µM) | 250 | 250 | 100 | 1000 | – | – | – | –
COc1cc(OC)c(C2CC(c3cccc([N+](=O)[O-])c3)=NN2C(C)=O)cc1OC (centres undefined) | 125 | 125 | – | Not Active | 250 | 98 | 500 (≈ 1250 µM) | 250 | 100 | 125 | 1000 | – | – | – | –
CC(=O)N1N=C(c2cccc([N+](=O)[O-])c2)CC1c1ccc2ccccc2c1 (centres undefined) | 100 | 250 | 2 | Not Active | > 1000 | 98 | 1000 (≈ 2780 µM) | > 1000 | 100 | 250 | 250 | – | – | – | –
CC(=O)N1N=C(c2cccc([N+](=O)[O-])c2)CC1/C=C/c1ccccc1 (centres undefined) | 25 | 62.5 | 2 | Not Active | > 1000 | 98 | 250 (≈ 745 µM) | > 1000 | 250 | 100 | 500 | 4 | 5 | – | –
COc1ccc(C2CC(c3cccc([N+](=O)[O-])c3)=NN2)cc1 (centres undefined) | 500 | 62.5 | 2 | – | 1000 | 99 | 250 (≈ 841 µM) | 1000 | 500 | 100 | 250 | – | – | > 100 | –
COc1ccc(/C=C/C(=O)c2cccc([N+](=O)[O-])c2)cc1OC | 200 | 100 | – | – | > 1000 | 98 | 500 (≈ 1600 µM) | > 1000 | 200 | 200 | 500 | – | – | > 100 | –
O=C(/C=C/c1ccc2c(c1)OCO2)c1cccc([N+](=O)[O-])c1 | 250 | 250 | 2 | Not Active | 1000 | 99 | 250 (≈ 841 µM) | 1000 | 250 | 250 | 250 | – | – | – | –
O=C(/C=C/c1ccc2ccccc2c1)c1cccc([N+](=O)[O-])c1 | 125 | 62.5 | – | Not Active | 1000 | 98 | 500 (≈ 1650 µM) | 1000 | 100 | 200 | 500 | 2 | – | – | 2
CC1(C)S[C@@H]2[C@H](NC(=O)[C@H](N)c3ccccc3)C(=O)N2[C@H]1C(=O)O [AMPICILLIN] | 100 | 100 | – | – | – | – | – | – | 250 | 100 | – | – | – | – | –
COC1=CC(=O)C[C@@H](C)[C@]12Oc1c(Cl)c(OC)cc(OC)c1C2=O [GRISEOFULVIN] | – | – | – | – | 100 | – | – | 100 | – | – | 500 | – | – | – | –
CO[C@H]1/C=C/O[C@@]2(C)Oc3c(C)c(O)c4c(O)c(c(/C=N/N5CCN(C)CC5)c(O)c4c3C2=O)NC(=O)/C(C)=C\C=C\[C@H](C)[C@H](O)[C@@H](C)[C@@H](O)[C@@H](C)[C@H](OC(C)=O)[C@@H]1C [RIFAMPIN] | – | – | – | – | – | 98 | 40 (≈ 48.6 µM) | – | – | – | – | – | – | – | –
